Experimental data reported in PMC9698358, “The Discovery of Novel Ferulic Acid Derivatives Incorporating Substituted Isopropanolamine Moieties as Potential Tobacco Mosaic Virus Helicase Inhibitors” (International Journal of Molecular Sciences, 2022).

Legend:
TMV helicase [1] = target: T1, TMV helicase (Tobacco mosaic virus, UniProt Q9IBK4); assay: microscale thermophoresis; format: binding
T1 construct: helicase domain of the 126/183 kDa replicase

TMV helicase [2] = target: T1, TMV helicase; assay: ATPase activity, malachite green phosphate release; format: biochemical

T1 sequence (Q9IBK4 entry or part of it): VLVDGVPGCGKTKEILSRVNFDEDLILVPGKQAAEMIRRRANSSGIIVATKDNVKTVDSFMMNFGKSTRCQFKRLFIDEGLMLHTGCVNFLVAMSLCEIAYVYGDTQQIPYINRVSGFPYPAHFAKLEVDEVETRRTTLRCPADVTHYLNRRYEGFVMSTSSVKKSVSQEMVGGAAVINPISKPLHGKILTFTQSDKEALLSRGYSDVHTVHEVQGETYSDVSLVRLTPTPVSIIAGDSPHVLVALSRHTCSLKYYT

Row | SMILES | Kd (TMV helicase [1]) | inhibition at 200 µM (TMV helicase [2])
1 | COC(=O)/C=C/c1ccc(OCC(O)CN2CCN(Cc3ccccc3C)CC2)c(OC)c1 (stereo not shown) [A31] | 13.5 µM | 47%
2 | COc1cc(/C=C/C(=O)O)ccc1O [FA, 3-methoxy-4-hydroxycinnamic acid] | – | 26.4%
3 | COC(=O)/C=C/c1ccc(OC[C@H](O)CN2CCOCC2)c(OC)c1 [R-A19] | 5.4 µM | 50.6%
4 | COC(=O)/C=C/c1ccc(OC[C@@H](O)CN2CCOCC2)c(OC)c1 [S-A19] | 22.8 µM | 44.5%
